Here are results for 7 compounds from patent US20210284668A1, “GOLD (I)-PHOSPHINE 1,2,3-TRIAZOLE DERIVATIVES WITH ANTIBIOTIC PROPERTIES” (Centre National de la Recherche Scientifique, priority 2018, published 2021).

Values joined by “and” are separate entries in the source; they are usually repeats but may differ in a detail not shown here. Equal values may be shown once.

The subject of test [1] is S. epidermidis ST20150446. The test can be described thus: MIC by microdilution, S. epidermidis ST20150446. The class given is cell-based, Staphylococcus epidermidis. The conditions noted are these: S. epidermidis ST20150446 (MecA positive, glycopeptide resistant), in duplicate. Summed up:
(§1)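 Broth microdilution per CLSI document M07-A10, Mueller-Hinton medium, each MIC run in duplicate. Strains include E. coli ATCC25922 (wild-type), S. epidermidis ATCC35984 (MecA positive) and S. aureus ATCC700699 (MecA positive, glycopeptide resistant), within a mixed panel of susceptible and resistant Gram-positive/Gram-negative bacteria.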

Test [2] concerns E. faecalis UCN41. Put plainly: MIC by microdilution, E. faecalis UCN41. The test is classed as cell-based, Enterococcus faecalis. The arrangement: unit not given here. As to conditions: E. faecalis UCN41 (VanA positive, glycopeptide resistant), in duplicate. Summed up: as §1
The test system of test [3] is E. faecium AUS0004. Put plainly: MIC by microdilution, E. faecium AUS0004. The test is classed as cell-based, Enterococcus faecium. As to conditions: E. faecium AUS0004 (VanB positive, glycopeptide resistant), in duplicate. Summed up:
as §1

Test [4] relates to S. aureus ATCC700699. The test can be described thus: MIC by microdilution, S. aureus ATCC700699. The class given is cell-based, Staphylococcus aureus. The arrangement: unit not given here. The conditions noted are these: S. aureus ATCC700699 (MecA positive, glycopeptide resistant), in duplicate. Summed up: (§2)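 Broth microdilution per CLSI (M07-A10) in Mueller-Hinton broth, run in duplicate; MIC recorded as minimal inhibitory concentration. Panel spans wild-type to multidrug-resistant strains, e.g. S. aureus ATCC700699 (MecA+, glycopeptide resistant), S. epidermidis ATCC35984 (MecA+), E. coli ATCC25922 (wild-type).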

The subject of test [5] is E. faecium BM4147. Put plainly: MIC by microdilution, E. faecium BM4147. The class given is cell-based, Enterococcus faecium. The arrangement: unit not given here. As to conditions: E. faecium BM4147 (VanA positive, glycopeptide resistant), in duplicate. Summed up: as §1
Test [6] relates to Clostridium difficile ATCC700057. The test can be described thus: MIC by microdilution, Clostridium difficile. The test is classed as cell-based. The conditions noted are these: strain ATCC70057 [sic] (Tables 1-2) / ATCC700057 (Tables 3-10), in duplicate.
The subject of test [7] is panel of Gram-positive and Gram-negative strains. The test can be described thus: Antibacterial profile on the selected panel of strains. The test is classed as cell-based. As to conditions: summary of Tables 1-12. Summed up: as §2
For test [8], the system named is S. epidermidis ATCC14990. Put plainly: MIC by microdilution, S. epidermidis ATCC14990. The class given is cell-based, Staphylococcus epidermidis. The conditions noted are these: S. epidermidis ATCC14990 (MecA negative, wild-type), in duplicate. In short, it runs like this:
as §2

Test [9] relates to S. aureus ATCC29213. Put plainly: MIC by microdilution, S. aureus ATCC29213. The class given is cell-based, Staphylococcus aureus. The conditions noted are these: S. aureus ATCC29213 (MecA negative, wild-type), Mueller-Hinton broth, in duplicate. Summed up: as §1
The subject of test [10] is S. epidermidis ST20140436. The test can be described thus: MIC by microdilution, S. epidermidis ST20140436. The class given is cell-based, Staphylococcus epidermidis. The conditions noted are these: S. epidermidis ST20140436 (MecA positive, glycopeptide resistant), in duplicate. Summed up:
as §1

Test [11] has as its system E. faecalis V583. Put plainly: MIC by microdilution, E. faecalis V583. The class given is cell-based, Enterococcus faecalis. As to conditions: E. faecalis V583 (VanB positive, glycopeptide resistant), in duplicate. Summed up:
as §2

The test system of test [12] is S. epidermidis ATCC35984. The test can be described thus: MIC by microdilution, S. epidermidis ATCC35984. The class given is cell-based, Staphylococcus epidermidis. As to conditions: S. epidermidis ATCC35984 (MecA positive), in duplicate. In short, it runs like this: as §2
For test [13], the system named is E. coli ATCC25922. The test can be described thus: MIC by microdilution, E. coli ATCC25922. As to conditions: E. coli ATCC25922 (wild-type), in duplicate. The test is classed as cell-based, Escherichia coli. In short, it runs like this: as §2
The test system of test [14] is S. aureus ST20131365. The test can be described thus: MIC by microdilution, S. aureus ST20131365. The test is classed as cell-based, Staphylococcus aureus. The conditions noted are these: S. aureus ST20131365 (MecA positive, glycopeptide resistant), in duplicate. Summed up: as §2
Test [15] concerns E. faecalis JH2-2. Put plainly: MIC by microdilution, E. faecalis JH2-2. Also on record: unit not given here. As to conditions: E. faecalis JH2-2 (wild-type), in duplicate. The test is classed as cell-based, Enterococcus faecalis. In short, it runs like this:
as §1

The subject of test [16] is S. aureus ATCC25923. The test can be described thus: MIC by microdilution, S. aureus ATCC25923. As to conditions: S. aureus ATCC25923 (MecA negative, wild-type), Mueller-Hinton broth, in duplicate. The class given is cell-based, Staphylococcus aureus. Summed up:
as §1

The subject of test [17] is E. faecium ATCC19434T. Put plainly: MIC by microdilution, E. faecium ATCC19434T. The class given is cell-based, Enterococcus faecium. The arrangement: unit not given here. The conditions noted are these: E. faecium ATCC19434T (wild-type), in duplicate. In short, it runs like this: as §1

`CC[P+](CC)(CC)[Au-][c]1nn[nH]c1COC(=O)NC(C(=O)O)c1ccccc1` (centres unmarked) [TMB1]: the “Minimal Inhibitory Concentration (MIC)” value is not above 0.06 in test [1]; 0.5 in [2]; 0.5 in [3]; 0.125 and 0.25 in test [4]; 1 in [5]; not above 0.06 in test [6]. Besides, the “Minimal Inhibitory Concentration (MIC)” value in test [8] was not above 0.06; in [9], 0.125; in test [10], not above 0.06; in [11], 0.5 and 1; in test [12], not above 0.06; in [13], more than 8. Further, the “Minimal Inhibitory Concentration (MIC)” value in test [14] was 0.125; in test [15], 0.25 and 0.5; in test [16], 0.125; in test [17], 0.5. In addition, in [7], the “antimicrobial / antibacterial activity (in words)” value is “have antimicrobial activity”.

On to `CC[P+](CC)(CC)[Au-][c]1nn[nH]c1CCC(=O)NC(C(=O)NC1C(=O)N2C1SC(C)(C)C2C(=O)O)c1ccccc1` (centres unmarked) [TMB4], for which the “Minimal Inhibitory Concentration (MIC)” value was 0.125 in [1]; 0.5 in [2]; 0.5 in test [3]; 0.125 in test [4]; 1 in test [5]; ≤0.06-0.125 in test [6]. In addition, the “Minimal Inhibitory Concentration (MIC)” value in test [8] is given as not above 0.06; in test [9], 0.125; in test [10], not above 0.06; in [11] it was 0.5; in test [12] it was not above 0.06; in [13], more than 8. The entries for the “Minimal Inhibitory Concentration (MIC)” value in test [14], in test [16] and in test [17] were 0.125, 0.125 and 0.5, respectively. The “antimicrobial / antibacterial activity (in words)” value in test [7] is recorded as “have antimicrobial activity”.

In the case of `CC1(C)S[C@@H]2[C@H](NC(=O)[C@H](NC(=O)OCc3cnn[nH]3)c3ccccc3)C(=O)N2[C@H]1C(=O)O` [TMB5], the “Minimal Inhibitory Concentration (MIC)” value is on record as more than 8 in test [1]; 8 in test [2]; more than 8 in test [3]; more than 8 in test [4]; more than 8 in test [5]; 4 in test [6]. Further, the “Minimal Inhibitory Concentration (MIC)” value was 1 in test [8]; 2 in [9]; 8/>8 in test [10]; 4 in test [11]; more than 8 in test [12]; more than 8 in [13]. Besides, the “Minimal Inhibitory Concentration (MIC)” value was more than 8 in [14]; 2 and 4 in test [15]; 2 in test [16]; 8 in test [17]. Moreover, the “antimicrobial / antibacterial activity (in words)” value in [7] is “do not show an antibacterial activity”.

Consider `CC1(C)S[C@@H]2[C@H](NC(=O)[C@H](NC(=O)CCc3cnnn3Cc3ccccc3)c3ccccc3)C(=O)N2[C@H]1C(=O)O` [TMB6], for which the “Minimal Inhibitory Concentration (MIC)” value is 4 and 8 in test [1]; 8 in [2]; more than 8 in test [3]; more than 8 in test [4]; more than 8 in test [5]; 2-4 in test [6]. In addition, the “Minimal Inhibitory Concentration (MIC)” value in [8] is 0.5; in test [9] it was 0.5 and 1; in [10], 4; in test [11] it was 4; in [12], more than 8; in test [13] it was more than 8. The “Minimal Inhibitory Concentration (MIC)” value is more than 8 in test [14]; 2 and 4 in test [15]; 0.5 in test [16]; 8 in test [17]. The “antimicrobial / antibacterial activity (in words)” value in test [7] was “do not show an antibacterial activity”.

For the compound `CC1(C)S[C@@H]2[C@H](NC(=O)[C@H](NC(=O)OCc3cnnn3Cc3ccccc3)c3ccccc3)C(=O)N2[C@H]1C(=O)O` [TMB7], the “Minimal Inhibitory Concentration (MIC)” value in [1] is given as more than 8; in test [2] it was 4; in test [3], more than 8; in test [4] it was more than 8; in test [5] it was more than 8; in test [6] it was 4. Further, the “Minimal Inhibitory Concentration (MIC)” value in [8] is 1; in test [9], 1; in test [10], 8; in test [11] it was 2; in [12] it was more than 8; in test [13] it was more than 8. The “Minimal Inhibitory Concentration (MIC)” value in test [14] was more than 8; in test [15], 1 and 2; in [16], 1; in [17], 8. For the same compound, in test [7], the “antimicrobial / antibacterial activity (in words)” value is recorded as “do not show an antibacterial activity”.

Take `CC[P+](CC)(CC)[Au-][c]1nn[nH]c1CCC(=O)O` [TMB19]: the “Minimal Inhibitory Concentration (MIC)” value was not above 0.06 in test [1]; 0.125 and 0.25 in [2]; 0.125 in test [3]; 0.125 and 0.25 in test [4]; 0.25 in test [5]; not above 0.06 in test [6]. Moreover, the “Minimal Inhibitory Concentration (MIC)” value was not above 0.06 in [8]; 0.125 in test [9]; not above 0.06 in [10]; 0.125 and 0.25 in [11]; not above 0.06 in [12]; more than 8 in [13]. Besides, the “Minimal Inhibitory Concentration (MIC)” value was 0.125 in test [14]; 0.125 and 0.25 in test [15]; 0.125 and 0.25 in test [17]. Besides, in test [7], the “antimicrobial / antibacterial activity (in words)” value is recorded as “have antimicrobial activity”.

Turning to `CC[P+](CC)(CC)[Au-][c]1nn[nH]c1COC(=O)N[C@@H](CCCNC(=N)N[N+](=O)[O-])C(=O)O` [TMB35], the “Minimal Inhibitory Concentration (MIC)” value in [1] was 0.125 and 0.25; in test [2], 1; in [3] it was 1; in test [4], 0.25; in [5], 1; in test [6], 0.125. The “Minimal Inhibitory Concentration (MIC)” value in test [8] is not above 0.06; in [9], 0.25; in [10], 0.125; in [11], 1; in [13] it was more than 8; in test [14], 0.25. Moreover, the “Minimal Inhibitory Concentration (MIC)” value in test [15] is given as 1; in test [16], 0.125; in test [17] it was 0.5. For the same compound, in [7], the “antimicrobial / antibacterial activity (in words)” value is “have antimicrobial activity”.
